EC50 data for 15 molecules are collected here from patent US9351955B2, “Compounds and pharmaceutical compositions thereof for the treatment of cystic fibrosis” (Galapagos NV, priority 2013, dated 2016).

Holding throughout (format): cell-based
In one assay the target is T1, CFTR-S549N (Homo sapiens, UniProt P13569, S549N).
T1 construct: expressed in transfected cells
The assay can be described thus: YFP-halide influx assay for the CFTR-S549N. The conditions noted are these: CFTR-S549N mutant; read-out: EC50 measured by YFP-halide influx assay for the CFTR-S549N. From the text: (§1) The YFP halide influx assay measures the functionality of the cystic fibrosis Transmembrane Conductance regulator (CFTR) channels. The assay is used to evaluate the capacity of compounds to increase the channel opening of existing mutant CFTR channels in the membrane. It makes use of the observation that the yellow fluorescent protein (YFP) variant YFP H148Q, I152L, F47L has its fluorescence substantially quenched by halide ions like Cl^− and I^−. (Galietta et al., 2001)
(§2) For this purpose, HEK293-cells are seeded in 96 well plates. During seeding, the cells are reverse-transfected with plasmid vectors that direct the expression of the CFTR G551D mutant and of the YFP reporter. Cells are incubated at 37° C., 5% CO2 for 24 hours so as to allow for sufficient expression of the CFTR protein.
(§3) The I^−-induced quenching of fluorescence is recorded immediately after injection of I^− for 7 seconds. The capacity of a compound to increase the channel opening is directly correlated with the decrease in fluorescence, and is expressed as (1−(fluorescence after 7 seconds (F)/fluorescence before injection (F0))) and an EC50 can be derived from a (1−F/F0) vs compound concentration plot.
(§4) Similar YHA assays were developed for other channel gating defective or channel conductance defective CFTR mutants to determine effect of compound on channel activity. Examples of mutants are G178R, G1349D, S549N, R117H, R334W. This assay is also used for additional class I CFTR mutants, including G542X, W1282X; class II mutants including N1303K, and for class III mutants including S1251N; or wild-type CFTR.

Another assay concerns the target T2, CFTR G551D mutant (Homo sapiens, UniProt P13569, G551D).
T2 construct: expressed in transfected cells; host or cells: HEK293 (reverse transfection with plasmids)
In words: YFP-halide influx assay for the CFTR-G551D mutation (HEK293 cells). The conditions noted are these: HEK293 cells expressing CFTR G551D and YFP reporter; forskolin 10.67 μM; read-out: EC50 measured by YFP-halide influx assay for the CFTR-G551D. A digest of the protocol: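 HEK293 cells reverse-transfected with CFTR G551D and halide-sensitive YFP, expressed 24 h at 37 °C. Iodide-induced fluorescence quench recorded for 7 s after I^− injection; response as 1−F/F0, EC50 from concentration plot.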

A further assay addresses T3, CFTR ΔF508 mutant (Homo sapiens, UniProt P13569, DEL508-508).
T3 construct: expressed in transfected cells; host or cells: CFBE41o- (adenoviral transduction)
The assay can be described thus: YFP-halide influx assay for the CFTR-ΔF508 mutation (384 well, CFBE41o- cells, FDSS/μCell). The conditions noted are these: forskolin 10.67 μM, fluorescence after 36 seconds, read-out: EC50 measured by YFP-halide influx assay for the CFTR-ΔF508. In a few lines: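 CFBE41o- cells were adenovirally transduced with ΔF508 CFTR and the YFP H148Q/I152L reporter. Cells were then held 24 h at 27 °C or treated 24 h at 37 °C with a CFTR modulator. Iodide-induced quench was recorded for 2 min, and EC50 was derived from 1−F/F0 at 36 s against compound concentration.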

Another assay has as its target T4, CFTR-G178R (Homo sapiens, UniProt P13569, G178R).
T4 construct: expressed in transfected cells
The assay can be described thus: YFP-halide influx assay for the CFTR-G178R. The conditions noted are these: read-out: EC50 measured by YFP-halide influx assay for the CFTR-G178R.
Text: as §1, §2, §3, §4

The next assay deals with T5, CFTR-G1349D (Homo sapiens, UniProt P13569, G1349D).
T5 construct: expressed in transfected cells
T5 sequence (P13569 whole entry G1349D): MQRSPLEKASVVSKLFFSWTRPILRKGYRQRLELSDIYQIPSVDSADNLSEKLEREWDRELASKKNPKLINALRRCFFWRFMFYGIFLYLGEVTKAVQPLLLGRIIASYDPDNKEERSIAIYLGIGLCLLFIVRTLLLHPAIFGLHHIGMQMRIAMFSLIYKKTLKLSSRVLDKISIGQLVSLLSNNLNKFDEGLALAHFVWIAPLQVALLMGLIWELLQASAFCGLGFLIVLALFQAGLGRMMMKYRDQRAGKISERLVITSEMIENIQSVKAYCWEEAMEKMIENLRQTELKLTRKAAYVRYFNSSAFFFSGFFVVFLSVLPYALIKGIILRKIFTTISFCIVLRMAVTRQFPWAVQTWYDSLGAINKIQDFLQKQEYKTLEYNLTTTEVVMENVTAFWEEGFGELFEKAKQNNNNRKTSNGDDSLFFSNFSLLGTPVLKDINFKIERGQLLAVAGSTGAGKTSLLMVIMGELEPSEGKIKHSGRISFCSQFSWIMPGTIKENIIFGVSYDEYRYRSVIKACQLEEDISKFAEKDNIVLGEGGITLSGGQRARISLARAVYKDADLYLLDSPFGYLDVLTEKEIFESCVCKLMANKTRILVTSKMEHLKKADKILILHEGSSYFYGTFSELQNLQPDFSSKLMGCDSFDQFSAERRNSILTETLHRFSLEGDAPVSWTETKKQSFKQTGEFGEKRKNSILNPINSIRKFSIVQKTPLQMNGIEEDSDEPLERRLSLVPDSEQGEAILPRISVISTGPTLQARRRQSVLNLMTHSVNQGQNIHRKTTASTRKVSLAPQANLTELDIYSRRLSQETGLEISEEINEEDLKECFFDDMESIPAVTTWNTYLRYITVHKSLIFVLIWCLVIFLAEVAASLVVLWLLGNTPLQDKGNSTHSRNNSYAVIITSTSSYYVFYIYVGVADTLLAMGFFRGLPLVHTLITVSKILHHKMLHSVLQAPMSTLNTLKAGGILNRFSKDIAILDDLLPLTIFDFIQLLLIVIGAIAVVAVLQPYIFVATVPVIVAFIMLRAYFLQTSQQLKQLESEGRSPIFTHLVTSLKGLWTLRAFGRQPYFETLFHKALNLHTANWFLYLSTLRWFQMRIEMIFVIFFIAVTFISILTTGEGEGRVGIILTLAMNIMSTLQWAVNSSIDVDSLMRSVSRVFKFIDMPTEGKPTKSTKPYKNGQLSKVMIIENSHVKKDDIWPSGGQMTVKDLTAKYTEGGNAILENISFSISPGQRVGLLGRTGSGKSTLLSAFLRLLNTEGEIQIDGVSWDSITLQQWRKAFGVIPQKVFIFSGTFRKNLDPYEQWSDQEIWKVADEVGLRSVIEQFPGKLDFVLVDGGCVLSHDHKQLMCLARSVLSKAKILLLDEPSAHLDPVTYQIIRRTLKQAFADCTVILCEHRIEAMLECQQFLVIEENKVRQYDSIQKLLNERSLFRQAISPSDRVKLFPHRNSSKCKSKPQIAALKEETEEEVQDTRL
The assay can be described thus: YFP-halide influx assay for the CFTR-G1349D. The conditions noted are these: CFTR-G1349D mutant; read-out: EC50 measured by YFP-halide influx assay for the CFTR-G1349D.
Text: as §1, §2, §3, §4

The target of another assay is T6, CFTR-R117H (Homo sapiens, UniProt P13569, R117H).
T6 construct: expressed in transfected cells
T6 sequence (P13569 whole entry R117H): as the sequence (P13569 whole entry G1349D) above, with R117H, D1349G counted along it
In words: YFP-halide influx assay for the CFTR-R117H. As to conditions: CFTR-R117H mutant; read-out: EC50 measured by YFP-halide influx assay for the CFTR-R117H.
Text: as §1, §2, §3, §4

T2 sequence (P13569 whole entry G551D): as the sequence (P13569 whole entry G1349D) above, with G551D, D1349G counted along it
T4 sequence (P13569 whole entry G178R): as the sequence (P13569 whole entry G1349D) above, with G178R, D1349G counted along it
T3 sequence (P13569 with tags, fused parts or gaps DEL508-508): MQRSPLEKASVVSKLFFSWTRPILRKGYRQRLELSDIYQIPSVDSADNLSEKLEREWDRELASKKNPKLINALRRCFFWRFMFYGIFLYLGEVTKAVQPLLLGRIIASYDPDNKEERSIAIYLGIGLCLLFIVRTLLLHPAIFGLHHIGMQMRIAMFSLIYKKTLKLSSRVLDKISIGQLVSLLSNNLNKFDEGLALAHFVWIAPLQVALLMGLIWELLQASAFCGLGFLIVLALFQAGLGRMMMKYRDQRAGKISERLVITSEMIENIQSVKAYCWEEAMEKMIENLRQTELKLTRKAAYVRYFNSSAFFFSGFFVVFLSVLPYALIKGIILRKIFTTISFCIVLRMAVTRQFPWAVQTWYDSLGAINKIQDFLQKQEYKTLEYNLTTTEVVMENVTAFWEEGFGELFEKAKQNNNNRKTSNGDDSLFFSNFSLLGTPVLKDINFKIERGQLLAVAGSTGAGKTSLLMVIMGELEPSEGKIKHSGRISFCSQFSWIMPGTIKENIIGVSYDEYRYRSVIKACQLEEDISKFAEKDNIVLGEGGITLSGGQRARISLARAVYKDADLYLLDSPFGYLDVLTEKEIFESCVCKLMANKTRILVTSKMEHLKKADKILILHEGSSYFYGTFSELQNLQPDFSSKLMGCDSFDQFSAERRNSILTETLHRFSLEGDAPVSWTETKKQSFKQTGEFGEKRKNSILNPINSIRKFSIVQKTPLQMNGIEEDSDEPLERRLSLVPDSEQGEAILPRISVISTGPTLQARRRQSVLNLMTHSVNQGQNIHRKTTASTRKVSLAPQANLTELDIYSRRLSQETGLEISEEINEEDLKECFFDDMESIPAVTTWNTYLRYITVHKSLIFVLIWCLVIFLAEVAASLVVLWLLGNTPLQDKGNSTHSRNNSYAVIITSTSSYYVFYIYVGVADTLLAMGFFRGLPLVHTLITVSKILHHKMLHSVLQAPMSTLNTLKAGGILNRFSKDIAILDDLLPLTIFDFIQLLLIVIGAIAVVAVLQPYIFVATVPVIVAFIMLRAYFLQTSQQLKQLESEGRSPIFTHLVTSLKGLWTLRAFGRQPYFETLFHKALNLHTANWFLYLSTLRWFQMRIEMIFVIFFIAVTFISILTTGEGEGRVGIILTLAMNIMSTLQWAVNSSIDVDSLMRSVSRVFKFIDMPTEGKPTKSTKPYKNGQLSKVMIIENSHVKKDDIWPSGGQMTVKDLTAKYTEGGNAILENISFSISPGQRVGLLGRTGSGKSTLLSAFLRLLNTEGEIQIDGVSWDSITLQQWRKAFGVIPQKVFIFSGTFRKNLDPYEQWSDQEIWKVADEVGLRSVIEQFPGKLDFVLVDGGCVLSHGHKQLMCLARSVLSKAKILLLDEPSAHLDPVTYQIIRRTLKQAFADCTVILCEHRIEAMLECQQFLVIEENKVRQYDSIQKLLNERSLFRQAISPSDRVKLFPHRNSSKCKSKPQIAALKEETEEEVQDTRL
T1 sequence (P13569 whole entry S549N): as the sequence (P13569 whole entry G1349D) above, with S549N, D1349G counted along it

In general, EC50 refers to the concentration that produces a half-maximal response. In the case of `CC1(C)Cc2c(sc(NC(=O)c3ccnn3CC(F)(F)F)c2C(N)=O)C(C)(C)O1` [Compound 151, N-(3-carbamoyl-5,5,7,7-tetramethyl-4H-thieno[2,3-c]pyran-2-yl)-2-(2,2,2-trifluoroethyl)pyrazole-3-carboxamide], the EC50 came to 3330 nM at CFTR-S549N; 971 nM on CFTR G551D mutant; 20.1 nM at CFTR ΔF508 mutant; 221 nM at CFTR-G178R; 464 nM on CFTR-G1349D; 780 nM at CFTR-R117H.

With `CC1(C)Cc2c(sc(NC(=O)[C@@H](O)CC3CC3)c2C(N)=O)C(C)(C)O1` [Compound 98, 2-[[(2S)-3-cyclopropyl-2-hydroxy-propanoyl]amino]-5,5,7,7-tetramethyl-4H-thieno[2,3-c]pyran-3-carboxamide], the EC50 stood at 73 nM on CFTR-S549N; 5110 nM at CFTR G551D mutant; 2.62 nM at CFTR ΔF508 mutant; 41.5 nM at CFTR-G178R; 54.7 nM at CFTR-G1349D; 26.7 nM at CFTR-R117H.

For `CC1(C)Cc2c(sc(NC(=O)c3n[nH]cc3C3=CCOCC3)c2C(N)=O)C(C)(C)O1` [Compound 45, N-(3-carbamoyl-5,5,7,7-tetramethyl-4H-thieno[2,3-c]pyran-2-yl)-4-(3,6-dihydro-2H-pyran-4-yl)-1H-pyrazole-3-carboxamide], the concentration for a half-maximal effect (EC50) is 1520 nM at CFTR-S549N; 1140 nM on CFTR G551D mutant; 29.6 nM on CFTR ΔF508 mutant; 368 nM at CFTR-G178R; 325 nM at CFTR-G1349D; 1200 nM at CFTR-R117H.

For the molecule `CC(C)(C)CC(O)C(=O)Nc1sc2c(c1C(N)=O)CC(C)(C)OC2(C)C` (centres unmarked) [Compound 106, 2-[(2-hydroxy-4,4-dimethyl-pentanoyl)amino]-5,5,7,7-tetramethyl-4H-thieno[2,3-c]pyran-3-carboxamide], the EC50 on CFTR-S549N came to 21.8 nM; on CFTR G551D mutant, 981 nM; at CFTR ΔF508 mutant it was 0.54 nM; on CFTR-G178R, 26 nM; on CFTR-G1349D, 200 nM; on CFTR-R117H, 11.7 nM.

As for `COCc1[nH]nc(C(=O)Nc2sc3c(c2C(N)=O)CC(C)(C)OC3(C)C)c1Cl` [Compound 50, N-(3-carbamoyl-5,5,7,7-tetramethyl-4H-thieno[2,3-c]pyran-2-yl)-4-chloro-5-(methoxymethyl)-1H-pyrazole-3-carboxamide], the EC50 on CFTR-S549N is 105 nM; on CFTR G551D mutant, 288 nM; on CFTR ΔF508 mutant, 10.6 nM; at CFTR-G178R, 47.4 nM; on CFTR-G1349D, 70.5 nM; on CFTR-R117H, 76.3 nM.

Consider `CCOCCc1c[nH]nc1C(=O)Nc1sc2c(c1C(N)=O)CC(C)(C)OC2(C)C` [Compound 72, N-(3-carbamoyl-5,5,7,7-tetramethyl-4H-thieno[2,3-c]pyran-2-yl)-4-(2-ethoxyethyl)-1H-pyrazole-3-carboxamide], for which the EC50 at CFTR-S549N was determined as 122 nM; at CFTR G551D mutant, 368 nM; at CFTR ΔF508 mutant, 17.9 nM; at CFTR-G178R, 31.4 nM; at CFTR-G1349D, 64 nM; on CFTR-R117H it was 147 nM.

In the case of `CC(C)C(O)C(=O)Nc1sc2c(c1C(N)=O)CC(C)(C)OC2(C)C` (single isomer, unassigned) [Compound 52, 2-[[2-hydroxy-3-methyl-butanoyl]amino]-5,5,7,7-tetramethyl-4H-thieno[2,3-c]pyran-3-carboxamide], the EC50 on CFTR-S549N worked out at 86.5 nM; at CFTR ΔF508 mutant, 1.97 nM; on CFTR-G178R, 39.7 nM; at CFTR-G1349D, 60.9 nM; at CFTR-R117H it was 11.4 nM.

For the molecule `CC1(C)Cc2c(sc(NC(=O)[C@H](O)C(C)(C)C)c2C(N)=O)C(C)(C)O1` [Compound 77, 2-[[(2R)-2-hydroxy-3,3-dimethyl-butanoyl]amino]-5,5,7,7-tetramethyl-4H-thieno[2,3-c]pyran-3-carboxamide], the EC50 on CFTR-S549N amounted to 1450 nM; at CFTR G551D mutant, 7780 nM; on CFTR ΔF508 mutant, 127 nM; at CFTR-G178R, 2210 nM; on CFTR-G1349D it was 1310 nM; on CFTR-R117H, 1010 nM.

For `CC1(C)Cc2c(sc(NC(=O)c3ccn(CC(F)(F)F)n3)c2C(N)=O)C(C)(C)O1` [Compound 121, N-(3-carbamoyl-5,5,7,7-tetramethyl-4H-thieno[2,3-c]pyran-2-yl)-1-(2,2,2-trifluoroethyl)pyrazole-3-carboxamide], the concentration for a half-maximal effect (EC50) at CFTR-S549N worked out at 599 nM; on CFTR G551D mutant, 1000 nM; at CFTR ΔF508 mutant, 18.7 nM; at CFTR-G178R, 466 nM; on CFTR-G1349D, 536 nM; on CFTR-R117H it was 724 nM.

Take `CC(C)CC(O)C(=O)Nc1sc2c(c1C(N)=O)CC(C)(C)OC2(C)C` (centres unmarked) [Compound 46, 2-[(2-hydroxy-4-methyl-pentanoyl)amino]-5,5,7,7-tetramethyl-4H-thieno[2,3-c]pyran-3-carboxamide]: the EC50 at CFTR-S549N was 140 nM; at CFTR G551D mutant, 1430 nM; at CFTR ΔF508 mutant, 2.84 nM; on CFTR-G178R, 19 nM; at CFTR-G1349D, 58.4 nM; at CFTR-R117H, 24.4 nM.

With `CC1(C)Cc2c(sc(NC(=O)c3n[nH]cc3C3=COCCO3)c2C(N)=O)C(C)(C)O1` [Compound 94, N-(3-carbamoyl-5,5,7,7-tetramethyl-4H-thieno[2,3-c]pyran-2-yl)-4-(2,3-dihydro-1,4-dioxin-5-yl)-1H-pyrazole-3-carboxamide], the concentration giving a half-maximal response (EC50) stood at 345 nM on CFTR-S549N; 541 nM at CFTR G551D mutant; 30.1 nM at CFTR ΔF508 mutant; 67.6 nM at CFTR-G178R; 672 nM on CFTR-G1349D; 147 nM on CFTR-R117H.

Regarding `CC1(C)Cc2c(sc(NC(=O)[C@@H](O)C(C)(C)C)c2C(N)=O)C(C)(C)O1` [Compound 76, 2-[[(2S)-2-hydroxy-3,3-dimethyl-butanoyl]amino]-5,5,7,7-tetramethyl-4H-thieno[2,3-c]pyran-3-carboxamide], the EC50 on CFTR-S549N worked out at 31.5 nM; on CFTR G551D mutant, 412 nM; at CFTR ΔF508 mutant, 2.17 nM; on CFTR-G178R, 14.1 nM; at CFTR-G1349D, 24.4 nM; at CFTR-R117H, 15.3 nM.

As to `COCCOc1cc(C(=O)Nc2sc3c(c2C(N)=O)CC(C)(C)OC3(C)C)n[nH]1` [Compound 55, 5-(2-Methoxy-ethoxy)-1H-pyrazole-3-carboxylic acid (3-carbamoyl-5,5,7,7-tetramethyl-4,7-dihydro-5H-thieno[2,3-c]pyran-2-yl)-amide], the EC50 at CFTR-S549N was determined as 108 nM; at CFTR G551D mutant, 600 nM; on CFTR ΔF508 mutant it was 24.5 nM; on CFTR-G178R, 58.3 nM; on CFTR-G1349D it was 74 nM; at CFTR-R117H it was 38.9 nM.

In the case of `CCCc1c[nH]nc1C(=O)Nc1sc2c(c1C(N)=O)CC(C)(C)OC2(C)C` [Compound 71, N-(3-carbamoyl-5,5,7,7-tetramethyl-4H-thieno[2,3-c]pyran-2-yl)-4-propyl-1H-pyrazole-3-carboxamide], the EC50 came out at 196 nM at CFTR-S549N; 1170 nM on CFTR G551D mutant; 14.4 nM at CFTR ΔF508 mutant; 89.3 nM at CFTR-G178R; 97.7 nM on CFTR-G1349D; 116 nM at CFTR-R117H.

Take `CC(C)OCCOc1c[nH]nc1C(=O)Nc1sc2c(c1C(N)=O)CC(C)(C)OC2(C)C` [Compound 101, N-(3-carbamoyl-5,5,7,7-tetramethyl-4H-thieno[2,3-c]pyran-2-yl)-4-(2-isopropoxyethoxy)-1H-pyrazole-3-carboxamide]: the EC50 on CFTR-S549N was found to be 947 nM; on CFTR G551D mutant, 1360 nM; on CFTR ΔF508 mutant, 26.8 nM; on CFTR-G178R it was 347 nM; on CFTR-G1349D it was 888 nM; at CFTR-R117H it was 1120 nM.
